# Laboratory results from PMC2246479, “A phase 1 and pharmacokinetic study of didox: a ribonucleotide reductase inhibitor” (British Journal of Cancer, 1988).
# Tests used:
# [1] = parameters: method as in Van't Riet, personal communication; details: rats; ref Van't Riet, personal communication; cited from earlier work
# L1210 leukaemia = test system: L1210 leukaemia; parameters: method as in Van't Riet et al., 1979; details: L1210 leukaemia bearing female mice; ref Van't Riet et al., 1979; cited from earlier work
# murine tumours = test system: murine tumours; parameters: method as in Elford et al., 1984; details: ref Elford et al., 1984; cited from earlier work
# metastatic carcinoma = test: Clinical response in the phase 1 study; assay type: in vivo, human; details: 34 patients, any dosage level
# a number of cell lines = details: continuous drug exposure, no reference given; cited from earlier work
# [2] = in vivo
# [3] = test system: pools of deoxyribonucleotides; details: cited from earlier work
# mice = details: single dose, ref CRC Sponsored Toxicity Report, 1984; cited from earlier work
# ribonucleotide reductase = details: cited from earlier work
# NCI tumour panel = test system: NCI tumour panel; parameters: method as in Elford & Van't Riet, 1985; details: ref Elford & Van't Riet, 1985; cited from earlier work
# [4] = test system: patients with unresponsive metastatic carcinoma; details: in vivo
smiles,measurement,setting,value
"O=C(NO)c1ccc(O)c(O)c1 [didox, N,3-4 trihydroxy-benzamide]",Major metabolites formed,[1],"3,4-dihydroxybenzamide, 3-hydroxy-4-methoxybenzo- hydroxamic acid and 3-methoxy-4-hydroxy- benzohydroxamic acid"
same,Anti-neoplastic activity,L1210 leukaemia,anti-neoplastic activity
same,Interaction with doxorubicin and cyclophosphamide,murine tumours,act synergistically
same,Clinical responses,metastatic carcinoma,No clinical responses
same,Growth inhibitory concentration in vitro,a number of cell lines,up to 100 uM
same,Steady state volume of distribution,[2]; human,27.9 ± 6.2 lm-2
same,Total body Clearance,[2]; human,0.71 ± 0.19 Imin- 1 m-2
same,t1/2 alpha,[2]; human,5.2 min
same,t1/2 beta,[2]; human,41.3 min
same,Time to peak level of didox after injection,"[2]; human, iv",≤ 5 min
same,Administered dose excreted unchanged in the urine,[2]; iv,Less than 10%
same,Time within which the majority of urinary excretion occurred,[2]; iv,≤ 6 h
same,Depletion of the pools of all deoxyribonucleotides,"[3]; ref Elford et al., 1981",over 50%
same,LD10,mice,643 mg/kg
same,IC50,"ribonucleotide reductase; enzyme study, no reference given, read-out: Concentration causing 50% inhibition of the target enzyme",30 µM
same,Inhibition of ribonucleotide reductase compared to hydroxyurea,"ribonucleotide reductase; ref Elford et al., 1979",greater inhibition
same,Activity in the NCI tumour panel,NCI tumour panel,active
same,Maximum tolerated dose / dose that can be safely given,"[4]; human, iv",6 g m-2
same,Patients with severe diarrhoea (grade 4),[4],2 patients
same,Total white cell count after didox,[4],> 20 x 109 1-
same,Dose above which severe nausea and vomiting almost universal,[4]; iv,above 7 g m- 2
same,Dose at which dose limiting toxicity was encountered,[4]; iv,7.5 g m-2
same,Dose at which minor toxicity was initially noted,[4]; iv,"2,304 mg m 2"
"NC(=O)NO [hydroxyurea, reference compound]",Deoxyribonucleotide pools depleted,[3]; ref Thelander & Reichard 1979,only depleted pools of dGTP and dATP
same,Inhibition of ribonucleotide reductase in vitro,"ribonucleotide reductase; ref Elford, 1968",weak inhibitor
